As usually defined, the IC50 is the midpoint of a concentration-inhibition curve.

Among the data in US20240190862A1 (AMGEN INC., priority 2019, published 2024) are IC50 values, retold here.

Experiment [1] has as its target GDP-bound KRAS protein (aa 1-169) G12D/C118A (Homo sapiens (Human), UniProt P01116, C118A/G12D). Description: Coupled Nucleotide Exchange Assay (KRAS G12D). It is filed as biochemical. On the procedure: (§1) Coupled Nucleotide Exchange Assay: Purified GDP-bound KRAS protein (aa 1-169), containing either G12C or G12D, as well as C118A amino acid substitutions and an N-terminal His-tag, was pre-incubated in assay buffer (25 mM HEPES pH 7.4, 10 mM MgCl2, and 0.01% Triton X-100) with a compound dose-response titration for either 5 min or 20 hours (see Table 15). Following compound pre-incubation, purified SOS protein (aa 564-1049) and GTP (Roche 10106399001) were added to the assay wells and incubated for an additional 30 min. To determine the extent of inhibition of SOS-mediated nucleotide exchange, purified GST-tagged cRAF (aa 1-149), nickel chelate AlphaLISA acceptor beads (PerkinElmer AL108R), and AlphaScreen glutathione donor beads (PerkinElmer 6765302) were added to the assay wells and incubated for 10 minutes. The assay plates were then read on a PerkinElmer EnVision Multilabel Reader, using AlphaScreen® technology, and data were analyzed using a 4-parameter logistic model to calculate IC50 values.

The target of experiment [2] is GDP-bound KRAS protein (aa 1-169) G12C/C118A (Homo sapiens (Human), UniProt P01116, C118A/G12C). Kind of experiment: Coupled Nucleotide Exchange Assay (KRAS G12C). It is filed as biochemical. As for the experimental part: as §1
Sequence of GDP-bound KRAS protein (aa 1-169) G12C/C118A (P01116 other isoform, or with tags, fused parts or gaps G12C/C118A): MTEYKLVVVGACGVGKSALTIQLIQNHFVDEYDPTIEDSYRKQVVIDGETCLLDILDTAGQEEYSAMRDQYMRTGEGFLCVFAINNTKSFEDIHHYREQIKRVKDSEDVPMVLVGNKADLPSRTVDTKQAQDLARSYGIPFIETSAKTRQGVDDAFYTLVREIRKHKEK
[3] abbreviates: 20 h compound pre-incubation, read-out: GDP KRAS G12D 20 h Coupled Exchange IC50 IP.
Where [4] appears, read: 5 min compound pre-incubation, read-out: GDP KRAS G12C 5 min Coupled Exchange IC50 IP.
Setting [5] is: 20 h compound pre-incubation, read-out: GDP KRAS G12C 20 h Coupled Exchange IC50 IP.

Read-outs that look alike come from different tables or passages of the source. A value given as a limit tells only on which side of the number the result lay.

Sequence of GDP-bound KRAS protein (aa 1-169) G12D/C118A (P01116 other isoform, or with tags, fused parts or gaps G12D/C118A): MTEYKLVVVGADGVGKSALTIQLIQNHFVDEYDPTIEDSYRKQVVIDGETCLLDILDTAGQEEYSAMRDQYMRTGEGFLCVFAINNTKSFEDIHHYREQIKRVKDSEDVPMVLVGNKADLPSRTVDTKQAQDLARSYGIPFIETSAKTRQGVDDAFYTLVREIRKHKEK

For `Cc1ccnc(C(C)C)c1-n1c(=O)nc(N2CCN(C(=O)[C@H]3O[C@@H]3C)C[C@@H]2C)c2cc(Cl)c(-c3ccccc3F)nc21` (mixture of isomers) [Example 17, 6-Chloro-7-(2-fluorophenyl)-1-(2-isopropyl-4-methylpyridin-3-yl)-4-((S)-2-methyl-4-((2R,3S)-3-methyloxirane-2-carbonyl)piperazin-1-yl)pyrido[2,3-d]pyrimidin-2(1H)-one and 6-chloro-7-(2-fluorophenyl)-1-(2-isopropyl-4-methylpyridin-3-yl)-4-((S)-2-methyl-4-((2S,3R)-3-methyloxirane-2-carbonyl)piperazin-1-yl)pyrido[2,3-d]pyrimidin-2(1H)-one], the figures for the IC50 in experiment [1] (setting [3]), in experiment [2] (setting [4]) and in experiment [2] (setting [5]) were over 250 µM, 17.8 µM and 0.096 µM, respectively.

Regarding `Cc1ccnc(C(C)C)c1-n1c(=O)nc(N2CCN(C(=O)CCl)C[C@@H]2C)c2cc(Cl)c(-c3ccccc3F)nc21` [Example 1, (S)-6-Chloro-4-(4-(2-chloroacetyl)-2-methylpiperazin-1-yl)-7-(2-fluorophenyl)-1-(2-isopropyl-4-methylpyridin-3-yl)pyrido[2,3-d]pyrimidin-2(1H)-one], the IC50 in experiment [1] (setting [3]) was over 250 µM; in experiment [2] (setting [4]) it was 1.29 µM; in experiment [2] (setting [5]), 0.026 µM.

Regarding `Cc1ccnc(C(C)C)c1-n1c(=O)nc(N2CCN(C(=O)CF)C[C@@H]2C)c2cc(Cl)c(-c3ccccc3F)nc21` [Example 2, (S)-6-Chloro-4-(4-(2-fluoroacetyl)-2-methylpiperazin-1-yl)-7-(2-fluorophenyl)-1-(2-isopropyl-4-methylpyridin-3-yl)pyrido[2,3-d]pyrimidin-2(1H)-one], the IC50 in experiment [1] is over 250 µM; in experiment [2] (GDP KRAS G12C 5 min Coupled Exchange IC50 IP, 5 min compound pre-incubation), over 250 µM; in experiment [2] (GDP KRAS G12C 20 h Coupled Exchange IC50 IP, 20 h compound pre-incubation), 13.4 µM.

`Cc1ccnc(C(C)C)c1-n1c(=O)nc(N2CCN(C(=O)COc3ccccc3)C[C@@H]2C)c2cc(Cl)c(-c3ccccc3F)nc21` [Example 6, (S)-6-Chloro-7-(2-fluorophenyl)-1-(2-isopropyl-4-methylpyridin-3-yl)-4-(2-methyl-4-(2-phenoxyacetyl)piperazin-1-yl)pyrido[2,3-d]pyrimidin-2(1H)-one]: the IC50 is over 250 µM in experiment [1] (setting [3]), over 250 µM in experiment [2] (setting [4]) and 131 µM in experiment [2] (setting [5]).

For the compound `Cc1ccnc(C(C)C)c1-n1c(=O)nc(N2CCN(C(=O)COc3c(Cl)cccc3Cl)C[C@@H]2C)c2cc(Cl)c(-c3ccccc3F)nc21` [Example 7, (S)-6-Chloro-4-(4-(2-(2,6-dichlorophenoxy)acetyl)-2-methylpiperazin-1-yl)-7-(2-fluorophenyl)-1-(2-isopropyl-4-methylpyridin-3-yl)pyrido[2,3-d]pyrimidin-2(1H)-one], the IC50 in experiment [1] (setting [3]) is over 250 µM; in experiment [2] (setting [4]), over 250 µM; in experiment [2] (setting [5]), 26.2 µM.

Turning to `Cc1ccnc(C(C)C)c1-n1c(=O)nc(N2CCN(C(=O)COc3c(F)c(F)cc(F)c3F)C[C@@H]2C)c2cc(Cl)c(-c3ccccc3F)nc21` [Example 9, (S)-6-chloro-7-(2-fluorophenyl)-1-(2-isopropyl-4-methylpyridin-3-yl)-4-(2-methyl-4-(2-(2,3,5,6-tetrafluorophenoxy)acetyl)piperazin-1-yl)pyrido[2,3-d]pyrimidin-2(1H)-one], the 50% inhibitory concentration (IC50) is over 250 µM in experiment [1] (setting [3]), 33.9 µM in experiment [2] (setting [4]) and 2.45 µM in experiment [2] (setting [5]).

Regarding `Cc1ccnc(C(C)C)c1-n1c(=O)nc(N2CCN(C(=O)COc3c(F)cc(F)cc3F)C[C@@H]2C)c2cc(Cl)c(-c3ccccc3F)nc21` [Example 11, (S)-6-Chloro-7-(2-fluorophenyl)-1-(2-isopropyl-4-methylpyridin-3-yl)-4-(2-methyl-4-(2-(2,4,6-trifluorophenoxy)acetyl)piperazin-1-yl)pyrido[2,3-d]pyrimidin-2(1H)-one], the results for the IC50 in experiment [1] (setting [3]), in experiment [2] (setting [4]) and in experiment [2] (setting [5]) were over 250 µM, 69.8 µM and 5.45 µM, respectively.
